Results: patent US20160031878A1, “RADIOLABELED COMPOUNDS” (Hoffmann-La Roche Inc., priority 2013, published 2016)

Target: T1, human PDE10A full length (Homo sapiens, UniProt Q9Y233)
T1 construct: purchased Enzo Life Science, Lausen, Switzerland SE-534
Assay: human PDE10A full length Scintillation Proximity Assay (SPA)
Type: biochemical
Conditions: 50 nM cGMP + 50 nM [3H]-cGMP, 20 min at room temperature, read-out: PDE10A inhibition IC50
Experimental: The following test was carried out in order to determine the activity of the compounds of the present invention. PDE10A activity of the compounds of the present invention was determined using a Scintillation Proximity Assay (SPA)-based method similar to the one previously described (Fawcett, L. et al., Proc. Natl. Acad. Sci. USA 2000, 97(7), 3702-3707).
The human PDE10A full length assay was performed in 96-well micro titer plates. The reaction mixture of 50 μl contained 20 mM HEPES pH=7.5/10 mM MgCl2/0.05 mg/ml BSA (Sigma cat. # A-7906), 50 nM cGMP (Sigma, cat. # G6129) and 50 nM [^3H]-cGMP (GE Healthcare, cat. # TRK392 S.A. 13.2 Ci/mmol), 3.75 ng/well PDE10A enzyme (Enzo Life Science, Lausen, Switzerland cat # SE-534) with or without a specific test compound. A range of concentrations of the potential inhibitor was used to generate data for calculating the concentration of inhibitor resulting in 50% of the effect (e.g. IC50, the concentration of the competitor inhibiting PDE10A activity by 50%). Non-specific activity was tested without the enzyme. The reaction was initiated by the addition of the substrate solution (cGMP and [^3H]-cGMP) and allowed to progress for 20 minutes at room temperature. […] Afterwards, radioactive counts were measured on a Perkin Elmer TopCount Scintillation plate reader.

T1 sequence (Q9Y233 1-779 isoform Q9Y233-1): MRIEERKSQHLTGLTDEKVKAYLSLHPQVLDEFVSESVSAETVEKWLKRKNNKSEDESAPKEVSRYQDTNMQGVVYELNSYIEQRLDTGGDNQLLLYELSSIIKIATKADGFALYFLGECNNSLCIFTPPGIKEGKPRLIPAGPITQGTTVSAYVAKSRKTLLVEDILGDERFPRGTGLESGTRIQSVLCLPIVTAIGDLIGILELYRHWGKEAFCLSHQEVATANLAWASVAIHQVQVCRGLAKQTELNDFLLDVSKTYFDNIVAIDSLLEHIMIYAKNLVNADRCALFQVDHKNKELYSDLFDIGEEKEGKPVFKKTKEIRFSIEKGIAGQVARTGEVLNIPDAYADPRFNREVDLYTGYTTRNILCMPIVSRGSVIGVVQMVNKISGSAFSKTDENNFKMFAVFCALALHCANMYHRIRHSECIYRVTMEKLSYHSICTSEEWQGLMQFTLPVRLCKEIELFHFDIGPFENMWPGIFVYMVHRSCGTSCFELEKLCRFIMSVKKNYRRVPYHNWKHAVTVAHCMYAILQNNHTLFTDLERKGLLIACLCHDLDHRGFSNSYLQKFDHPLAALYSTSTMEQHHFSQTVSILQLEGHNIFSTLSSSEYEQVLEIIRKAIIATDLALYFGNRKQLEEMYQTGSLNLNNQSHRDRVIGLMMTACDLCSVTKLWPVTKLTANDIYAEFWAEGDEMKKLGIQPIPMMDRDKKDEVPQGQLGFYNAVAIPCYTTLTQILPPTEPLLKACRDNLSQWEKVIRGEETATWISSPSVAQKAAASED

With `CN(CCF)C(=O)c1cnn(C)c1C(=O)Nc1ccn2nc(-c3ccccc3)nc2c1` [Compound 4, 2-methyl-2H-pyrazole-3,4-dicarboxylic acid 4-[(2-fluoro-ethyl)-methyl-amide]3-[(2-phenyl-[1,2,4]triazolo[1,5-a]pyridin-7-yl)-amide]] as the molecule, how does the IC50 read?
Its IC50 is 0.94 nM.

`COc1cccc(-c2nc3cc(NC(=O)c4c(C(=O)N5CCOCC5)cnn4C)ccn3n2)c1` [Compound 21, 2-Methyl-4-(morpholine-4-carbonyl)-2H-pyrazole-3-carboxylic acid [2-(3-methoxy-phenyl)-[1,2,4]triazolo[1,5-a]pyridin-7-yl]-amide] was tested. Which IC50 did it give?
The IC50 was 5.1 nM.
